Tests used:
[1] = system: ISC-enriched organoids; test: Primary screen, 384-well 2.5-D organoid differentiation (ENR+CD, 6 days): basal lysozyme secretion (LYZ.NS); assay type: cell-based, murine; settings: for Dose.FC.LYZ.NS: FC vs plate median; for Z.LYZ.NS: standard z score of FC; for SSMD.LYZ.NS: strictly standardized mean difference; for Dose.FC.LYZ.NS (log 2 fold change, basal lysozyme secretion) / Dose.FC.LYZ.NS (log 2 fold change): vs plate median
Source text: (§1) High-throughput screening.

[2] = system: ISC-enriched organoids; test: Primary screen, 384-well 2.5-D organoid differentiation (ENR+CD, 6 days): carbachol-induced lysozyme secretion (LYZ.S); assay type: cell-based, murine; settings: for Dose.FC.LYZ.S / Z.LYZ.S / SSMD.LYZ.S / Dose.FC.LYZ.S (log 2 fold change): primary screen; for Dose.FC.LYZ.S: FC vs plate median; for Z.LYZ.S: standard z score; for SSMD.LYZ.S: strictly standardized mean difference; for Dose.FC.LYZ.S (log 2 fold change, carbachol-induced lysozyme secretion) / Dose.FC.LYZ.S (log 2 fold change): vs plate median
Source text: as §1

[3] = system: ISC-enriched organoids; test: Primary screen, 384-well 2.5-D organoid differentiation (ENR+CD, 6 days, Target Selective Inhibitor Library, vs whole-plate median): ATP (CellTiter-Glo 3D, CTG); settings: for Dose.FC.CTG: FC vs plate median; for SSMD.CTG: strictly standardized mean difference; for Dose.FC.CTG (log 2 fold change, ATP) / Dose.FC.CTG (log 2 fold change): vs plate median
[4] = primary screen, 1st of the 4 dose lines of the treatment (dose not given)
[5] = primary screen, 2nd of the 4 dose lines of the treatment (dose not given)
[6] = primary screen, 3rd of the 4 dose lines of the treatment (dose not given)
[7] = primary screen, 4th of the 4 dose lines of the treatment (dose not given)
[8] = 1st of the 4 dose lines of the treatment (dose not given)
[9] = 2nd of the 4 dose lines of the treatment (dose not given)
[10] = 3rd of the 4 dose lines of the treatment (dose not given)
[11] = 4th of the 4 dose lines of the treatment (dose not given)

## Cl.Cl.NC1(c2ccc(-c3nc4ccn5c(=O)[nH]nc5c4cc3-c3ccccc3)cc2)CCC1 [MK-2206 2HCl]
[1]; Dose 0.08 uM, primary screen
  Dose.FC.LYZ.NS: 0.024 log 2 fold change
[1]; Dose 0.08 uM
  Z.LYZ.NS: 0.205
[1]; Dose 0.40 uM, primary screen
  Dose.FC.LYZ.NS: −0.063 log 2 fold change
[1]; Dose 0.40 uM
  Z.LYZ.NS: −0.550
[1]; Dose 2.00 uM, primary screen
  Dose.FC.LYZ.NS: −0.182 log 2 fold change
[1]; Dose 2.00 uM
  Z.LYZ.NS: −1.587
[1]; Dose 10.00 uM, primary screen
  Dose.FC.LYZ.NS: −0.236 log 2 fold change
[1]; Dose 10.00 uM
  Z.LYZ.NS: −2.058
[1]; [4]
  SSMD.LYZ.NS: 0.230
[1]; [5]
  SSMD.LYZ.NS: −0.481
[1]; [6]
  SSMD.LYZ.NS: −1.586
[1]; [7]
  SSMD.LYZ.NS: −1.642
[2]; Dose 0.08 uM
  Dose.FC.LYZ.S: 0.071 log 2 fold change
[2]; Dose 0.40 uM
  Dose.FC.LYZ.S: 0.083 log 2 fold change
[2]; Dose 2.00 uM
  Dose.FC.LYZ.S: −0.239 log 2 fold change
[2]; Dose 10.00 uM
  Dose.FC.LYZ.S: −0.367 log 2 fold change
[2]; [8]
  Z.LYZ.S: 0.460
  SSMD.LYZ.S: 0.403
[2]; [9]
  Z.LYZ.S: 0.536
  SSMD.LYZ.S: 0.232
[2]; [10]
  Z.LYZ.S: −1.546
  SSMD.LYZ.S: −1.686
[2]; [11]
  Z.LYZ.S: −2.370
  SSMD.LYZ.S: −1.628
[3]; Dose 0.08 uM, primary screen
  Dose.FC.CTG: 0.071 log 2 fold change
[3]; Dose 0.08 uM, standard z score of FC
  Z.CTG: 0.169
[3]; Dose 0.40 uM, primary screen
  Dose.FC.CTG: −0.023 log 2 fold change
[3]; Dose 0.40 uM, standard z score of FC
  Z.CTG: −0.055
[3]; Dose 2.00 uM, primary screen
  Dose.FC.CTG: −0.178 log 2 fold change
[3]; Dose 2.00 uM, standard z score of FC
  Z.CTG: −0.425
[3]; Dose 10.00 uM, primary screen
  Dose.FC.CTG: −0.540 log 2 fold change
[3]; Dose 10.00 uM, standard z score of FC
  Z.CTG: −1.290
[3]; [4]
  SSMD.CTG: 0.242
[3]; [5]
  SSMD.CTG: −0.074
[3]; [6]
  SSMD.CTG: −0.453
[3]; [7]
  SSMD.CTG: −1.730

## C#Cc1cccc(Nc2ncnc3cc4c(cc23)OCCOCCOCCO4)c1 [Icotinib]
[1]; [4]
  SSMD.LYZ.NS: 0.227
[1]; [5]
  SSMD.LYZ.NS: −0.710
[1]; [6]
  SSMD.LYZ.NS: −1.321
[1]; [7]
  SSMD.LYZ.NS: −2.654
[2]; [8]
  Z.LYZ.S: 0.609
  SSMD.LYZ.S: 0.689
[2]; [9]
  Z.LYZ.S: −0.583
  SSMD.LYZ.S: −0.544
[2]; [10]
  Z.LYZ.S: −1.572
  SSMD.LYZ.S: −1.726
[2]; [11]
  Z.LYZ.S: −2.708
  SSMD.LYZ.S: −1.917
[3]; Dose 0.08 uM, primary screen, standard z score
  Z.CTG: −0.047
[3]; Dose 0.40 uM, primary screen, standard z score
  Z.CTG: −0.146
[3]; Dose 2.00 uM, primary screen, standard z score
  Z.CTG: −0.970
[3]; Dose 10.00 uM, primary screen, standard z score
  Z.CTG: −2.552
[3]; [4]
  SSMD.CTG: −0.065
[3]; [5]
  SSMD.CTG: −0.162
[3]; [6]
  SSMD.CTG: −0.865
[3]; [7]
  SSMD.CTG: −3.189

## VU 0364770
[1]; dose 0.08 uM
  Z.LYZ.NS (standard z score): 1.350
  Dose.FC.LYZ.NS (log 2 fold change, basal lysozyme secretion): 0.155
[1]; dose 0.40 uM
  Z.LYZ.NS (standard z score): 0.736
  Dose.FC.LYZ.NS (log 2 fold change, basal lysozyme secretion): 0.085
[1]; dose 2.00 uM
  Z.LYZ.NS (standard z score): 1.020
  Dose.FC.LYZ.NS (log 2 fold change, basal lysozyme secretion): 0.117
[1]; dose 10.00 uM
  Z.LYZ.NS (standard z score): 0.884
  Dose.FC.LYZ.NS (log 2 fold change, basal lysozyme secretion): 0.102
[2]; dose 0.08 uM
  Dose.FC.LYZ.S (log 2 fold change, carbachol-induced lysozyme secretion): 0.082
[2]; dose 0.40 uM
  Dose.FC.LYZ.S (log 2 fold change, carbachol-induced lysozyme secretion): 0.125
[2]; dose 2.00 uM
  Dose.FC.LYZ.S (log 2 fold change, carbachol-induced lysozyme secretion): 0.139
[2]; dose 10.00 uM
  Dose.FC.LYZ.S (log 2 fold change, carbachol-induced lysozyme secretion): 0.066
[3]; dose 0.08 uM
  Z.CTG (standard z score): 0.031
  Dose.FC.CTG (log 2 fold change, ATP): 0.013
[3]; dose 0.40 uM
  Z.CTG (standard z score): 0.204
  Dose.FC.CTG (log 2 fold change, ATP): 0.085
[3]; dose 2.00 uM
  Z.CTG (standard z score): 0.199
  Dose.FC.CTG (log 2 fold change, ATP): 0.083
[3]; dose 10.00 uM
  Z.CTG (standard z score): −0.246
  Dose.FC.CTG (log 2 fold change, ATP): −0.103

## CCn1c(N)c(C(=O)NC)c(=O)c2ccc(C#C[C@@](C)(O)COC)nc21 [SAR131675]
[1]; Dose 0.08 uM, primary screen
  Z.LYZ.NS (standard z score): 0.483
  Dose.FC.LYZ.NS (log 2 fold change): 0.055
[1]; Dose 0.40 uM, primary screen
  Z.LYZ.NS (standard z score): 0.774
  Dose.FC.LYZ.NS (log 2 fold change): 0.089
[1]; Dose 2.00 uM, primary screen
  Z.LYZ.NS (standard z score): 0.181
  Dose.FC.LYZ.NS (log 2 fold change): 0.021
[1]; Dose 10.00 uM, primary screen
  Z.LYZ.NS (standard z score): −0.766
  Dose.FC.LYZ.NS (log 2 fold change): −0.088
[2]; Dose 0.08 uM
  Dose.FC.LYZ.S (log 2 fold change): 0.148
[2]; Dose 0.40 uM
  Dose.FC.LYZ.S (log 2 fold change): 0.096
[2]; Dose 2.00 uM
  Dose.FC.LYZ.S (log 2 fold change): 0.026
[2]; Dose 10.00 uM
  Dose.FC.LYZ.S (log 2 fold change): 0.000
[3]; Dose 0.08 uM, primary screen
  Z.CTG (standard z score): 0.419
  Dose.FC.CTG (log 2 fold change): 0.175
[3]; Dose 0.40 uM, primary screen
  Z.CTG (standard z score): −0.201
  Dose.FC.CTG (log 2 fold change): −0.084
[3]; Dose 2.00 uM, primary screen
  Z.CTG (standard z score): 0.169
  Dose.FC.CTG (log 2 fold change): 0.071
[3]; Dose 10.00 uM, primary screen
  Z.CTG (standard z score): 0.149
  Dose.FC.CTG (log 2 fold change): 0.062

Reference: US20230398130A1, “METHODS AND COMPOSITIONS FOR DIFFERENTIATING STEM CELLS” (Massachusetts Institute of Technology, priority 2020, published 2023)
